In PubChem BioAssay (NCI):
Several values for one entry are separate records, joined by “and”; a condition that tells them apart may be missing. Equal entries are not always repeated.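 Step 1: Grow cells in 96-well plates. Step 2: Expose to compound for 48 hours at 5 concentrations. Step 3: Interpolate endpoints linearly; if unreached, use highest concentration. GI50 marks 50% less growth. TGI: concentration producing complete growth inhibition.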

Experiments:
Experiment in all cases: inhibition of tumour cell growth, NCI panel, 48 h
[1] = tested on: PC-3 prostate
[2] = tested on: MDA-MB-231 breast
[3] = tested on: T-47D breast
[4] = tested on: HL-60(TB) leukemia
[5] = tested on: DMS 114 small cell lung
[6] = tested on: HCT-15 colon
[7] = tested on: SF-268 CNS
[8] = tested on: UO-31 renal
[9] = tested on: HS 578T breast
[10] = tested on: LXFL 529 NSCLC

Compound: CC(C)[NH-].CC(C)[NH-].O.O.[Cl][Pt+2][Cl]
- GI50 [1]: 90.8 µM
- TGI [1]: 298 µM
- GI50 [2]: 63.8 µM
- TGI [2]: 254 µM
- GI50 [3]: 50.9 µM
- TGI [3]: 381 µM
- GI50 [4]: 15.3 µM
- TGI [4]: 83.7 µM
- GI50 [5]: 10.9 µM
- TGI [5]: 44.1 µM
- GI50 [6]: 35.7 µM
- TGI [6]: 208 µM
- GI50 [7]: 38.1 µM
- TGI [7]: 231 µM
- GI50 [8]: 147 µM
- TGI [8]: 356 µM
- GI50 [9]: 98.8 µM
- TGI [9]: 594 µM

Compound: CC(C)N1CCC2(CC1)NNc1ncccc1-n1cccc12
- TGI [4]: > 100 µM
- TGI [5]: > 100 µM
- TGI [7]: > 100 µM
- TGI [8]: > 100 µM

Compound: CCN(CC)CCCC(C)Nc1c2ccc(Cl)cc2nc2cc(OC)c(OC)cc12 (centres undefined)
- GI50 [1]: 2.08 µM
- TGI [1]: 6.28 µM
- GI50 [2]: 1.52 µM
- TGI [2]: 3.97 µM
- GI50 [3]: 7.36 µM
- TGI [3]: 32.5 µM
- GI50 [4]: 2.81 µM
- TGI [4]: 9.31 µM
- GI50 [6]: 1.2 µM
- TGI [6]: 3.49 µM
- GI50 [7]: 1.93 µM
- TGI [7]: 7.03 µM
- GI50 [8]: 1.43 µM
- TGI [8]: 2.89 µM
- GI50 [9]: 2.75 µM
- TGI [9]: 10.1 µM

Compound: CC(=O)OC(C)(C)/C=C/C(=O)[C@](C)(O)[C@H]1[C@H](O)C[C@@]2(C)[C@@H]3CC=C4[C@@H](C[C@H](O)C(=O)C4(C)C)[C@]3(CO)C(=O)C[C@]12C
- GI50 [4]: 0.3 µM
- TGI [4]: 0.922 µM and 1.33 µM
- GI50 [5]: 0.248 µM
- TGI [5]: 15.3 µM
- GI50 [6]: 0.351 µM
- TGI [6]: > 100 µM
- GI50 [7]: 0.362 µM
- TGI [7]: 0.971 µM and 1.29 µM
- GI50 [10]: 0.09 µM
- TGI [10]: 6.62 µM
- GI50 [8]: 0.251 µM
- TGI [8]: 0.883 µM and 0.565 µM

Compound: Cn1c(/C=C(\C#N)c2cccc(C(F)(F)F)c2)nc2c(N3CCOCC3)nc(Cl)nc21
- GI50 [1]: 0.726 µM
- TGI [1]: 2.5 µM
- GI50 [2]: 1.05 µM
- TGI [2]: 2.3 µM
- GI50 [3]: 0.846 µM
- TGI [3]: 3.25 µM
- GI50 [4]: 0.486 µM
- TGI [4]: 2.54 µM
- GI50 [6]: 0.221 µM
- TGI [6]: 0.61 µM
- GI50 [7]: 1.51 µM
- TGI [7]: 3.25 µM
- GI50 [8]: 0.422 µM
- TGI [8]: 1.84 µM
- GI50 [9]: 1.26 µM
- TGI [9]: 4.38 µM

Compound: COc1ccc2nc3cc([N+](=O)[O-])ccc3c(NCCCN(CCO)CCO)c2c1
- TGI [1]: 20.1 µM
- GI50 [2]: 7.78 µM
- TGI [2]: 21.8 µM
- GI50 [3]: 1.62 µM
- TGI [3]: 7.5 µM
- GI50 [4]: 2.56 µM
- TGI [4]: 22.7 µM
- GI50 [6]: 12.8 µM
- TGI [6]: 25.4 µM
- GI50 [7]: 4.09 µM
- TGI [7]: 10.8 µM
- GI50 [8]: 8.56 µM
- TGI [8]: 22.6 µM
- GI50 [9]: 4.06 µM
- TGI [9]: 12.5 µM

Compound: CCOC(=O)c1cc2c(cn1)[nH]c1cccc(N)c12
- TGI [4]: 28.6 µM
- TGI [5]: > 100 µM
- TGI [7]: > 100 µM
- TGI [10]: > 100 µM
- TGI [8]: > 100 µM

Compound: N#Cc1ccc(C2C3=C(CCCC3=O)OC3=C2C(=O)c2ccccc2C3=O)cc1 (centres undefined)
- GI50 [1]: 2.17 µM
- TGI [1]: 12.2 µM
- GI50 [2]: 0.447 µM
- TGI [2]: 1.83 µM
- GI50 [3]: 0.453 µM
- TGI [3]: 2.24 µM
- GI50 [4]: 0.259 µM
- TGI [4]: 1.27 µM
- GI50 [6]: 1.6 µM
- TGI [6]: 3.71 µM
- GI50 [7]: 1.97 µM
- TGI [7]: 5.04 µM
- GI50 [8]: 1.67 µM
- TGI [8]: 3.14 µM
- GI50 [9]: 3.21 µM
- TGI [9]: 9.37 µM

Compound: Nc1nc(NC2C=C(CO)C(O)C2O)c([N+](=O)[O-])c(=O)[nH]1 (centres undefined)
- TGI [5]: > 100 µM
- TGI [6]: > 100 µM
- TGI [7]: > 100 µM
- TGI [10]: > 100 µM
- TGI [8]: > 100 µM

Compound: O=c1cc(-c2ccccc2)[nH]c2c(Cl)cccc12
- TGI [4]: > 100 µM
- TGI [5]: > 100 µM
- TGI [6]: > 100 µM
- TGI [7]: > 100 µM
- TGI [10]: > 100 µM
- TGI [8]: > 100 µM

Compound: COc1cc(F)cc([C@@H](CO)NC(=O)[C@@H](C)N2Cc3ccc(-c4nc(NC5CCOCC5)ncc4Cl)cc3C2=O)c1
- GI50 [1]: 9.69 µM
- TGI [1]: 98.2 µM
- GI50 [2]: < 0.0175 µM
- TGI [2]: 18.7 µM
- GI50 [3]: 5.03 µM
- TGI [3]: 33 µM
- GI50 [4]: < 0.01 µM
- TGI [4]: 0.859 µM
- GI50 [6]: 6.08 µM
- TGI [6]: > 86.7 µM
- GI50 [7]: 14.1 µM
- TGI [7]: 99.6 µM
- GI50 [8]: 0.406 µM
- TGI [8]: 33.6 µM
- GI50 [9]: 4.96 µM
- TGI [9]: > 81.9 µM

Compound: COc1ccc(-c2cn(-c3cccc(C(=O)/C=C/c4ccc(O)c(OC)c4)c3)c(=O)[nH]2)cc1
- GI50 [1]: 2.91 µM
- TGI [1]: 14.2 µM
- GI50 [2]: 4.06 µM
- TGI [2]: > 54.3 µM
- GI50 [3]: 3.27 µM
- TGI [3]: 40.8 µM
- GI50 [4]: 2.5 µM
- TGI [4]: 16 µM
- GI50 [6]: 2.64 µM
- TGI [6]: 32.8 µM
- GI50 [7]: 3.32 µM
- TGI [7]: 14.7 µM
- GI50 [8]: 3.64 µM
- TGI [8]: 40.3 µM
- GI50 [9]: 3.24 µM
- TGI [9]: > 27.2 µM

Compound: O=CC(Br)C(Br)c1ccccc1 (centres undefined)
- GI50 [1]: 2.39 µM
- TGI [1]: 6.75 µM
- GI50 [2]: 2.01 µM
- TGI [2]: 4.22 µM
- GI50 [3]: 0.942 µM
- TGI [3]: 3.17 µM
- GI50 [4]: 0.462 µM
- TGI [4]: 2.32 µM
- GI50 [6]: 0.913 µM
- TGI [6]: 2.93 µM
- GI50 [7]: 4.2 µM
- TGI [7]: 16 µM
- GI50 [8]: 1.48 µM
- TGI [8]: 3.07 µM
- GI50 [9]: 8.81 µM
- TGI [9]: 43.9 µM

Compound: Cc1ccc(C(=O)/C(=C\c2ccc([N+](=O)[O-])cc2)S(=O)Cc2ccc(F)cc2)cc1 (centres undefined)
- GI50 [1]: 1.52 µM
- TGI [1]: 3.09 µM
- GI50 [2]: 1.83 µM
- TGI [2]: 3.68 µM
- GI50 [3]: 1.91 µM
- TGI [3]: 5.51 µM
- GI50 [4]: 1.67 µM
- TGI [4]: 5.02 µM
- GI50 [6]: 1.45 µM
- TGI [6]: 3.5 µM
- GI50 [7]: 1.69 µM
- TGI [7]: 3.36 µM
- GI50 [8]: 1.36 µM
- TGI [8]: 2.69 µM
- GI50 [9]: 2.87 µM
- TGI [9]: 8.76 µM

Compound: CN1CCC(C(=O)Nc2n[nH]c3nc(-c4ccc(O)cc4)c(Br)cc23)CC1
- GI50 [1]: 1.08 µM and 1.64 µM
- TGI [1]: > 22.2 µM
- GI50 [2]: 1.4 µM and 3.97 µM
- TGI [2]: 11.3 µM and 16 µM
- GI50 [3]: 1.12 µM and 1.72 µM
- TGI [3]: > 16.9 µM
- GI50 [4]: 0.988 µM and 0.333 µM
- TGI [4]: 4 µM and 1.25 µM
- GI50 [6]: 6.77 µM and 9.83 µM
- TGI [6]: > 25 µM
- GI50 [7]: 1.14 µM and 0.863 µM
- TGI [7]: 9.27 µM and 4.68 µM
- GI50 [8]: 6.85 µM and 7.86 µM
- TGI [8]: > 22.4 µM
- GI50 [9]: 1.15 µM and 0.208 µM
- TGI [9]: > 15.1 µM

Compound: CCOc1ccccc1N1C(=O)C(=O)C(c2nc3ccccc3o2)/C(=N\N)C1=O (centres undefined)
- TGI [4]: > 100 µM
- TGI [5]: > 100 µM
- TGI [6]: > 100 µM
- TGI [7]: > 100 µM
- TGI [10]: > 100 µM
- TGI [8]: 91 µM
